Source: PubChem BioAssay (NCI)
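In this assay, cells in 96-well plates receive the compound at five concentrations for 48 hours. Endpoints are linearly interpolated between the surrounding concentrations. TGI marks complete inhibition of growth.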

Columns and labels:
Experiment in all cases: growth of human tumour cells (NCI), 48 h
786-0 renal = test system: 786-0 renal
A498 renal = test system: A498 renal
ACHN renal = test system: ACHN renal
BT-549 breast = test system: BT-549 breast
CAKI-1 renal = test system: CAKI-1 renal
COLO 205 colon = test system: COLO 205 colon
DU-145 prostate = test system: DU-145 prostate
EKVX NSCLC = test system: EKVX NSCLC
HCC-2998 colon = test system: HCC-2998 colon
HCT-116 colon = test system: HCT-116 colon
HCT-15 colon = test system: HCT-15 colon
HL-60(TB) leukemia = test system: HL-60(TB) leukemia
HOP-62 NSCLC = test system: HOP-62 NSCLC
HT29 colon = test system: HT29 colon
K-562 leukemia = test system: K-562 leukemia
KM12 colon = test system: KM12 colon
LOX IMVI melanoma = test system: LOX IMVI melanoma
M14 melanoma = test system: M14 melanoma
MALME-3M melanoma = test system: MALME-3M melanoma
MCF7 breast = test system: MCF7 breast
MDA-MB-231 breast = test system: MDA-MB-231 breast
MDA-MB-435 = test system: MDA-MB-435
MDA-N = test system: MDA-N
MOLT-4 leukemia = test system: MOLT-4 leukemia
NCI-H226 lung = test system: NCI-H226 lung
NCI-H23 lung = test system: NCI-H23 lung
NCI-H522 lung = test system: NCI-H522 lung
NCI/ADR-RES ovarian = test system: NCI/ADR-RES ovarian
OVCAR-4 ovarian = test system: OVCAR-4 ovarian
OVCAR-5 ovarian = test system: OVCAR-5 ovarian
OVCAR-8 ovarian = test system: OVCAR-8 ovarian
PC-3 prostate = test system: PC-3 prostate
RPMI-8226 leukemia = test system: RPMI-8226 leukemia
RXF 393 renal = test system: RXF 393 renal
SF-268 CNS = test system: SF-268 CNS
SF-295 CNS = test system: SF-295 CNS
SF-539 CNS = test system: SF-539 CNS
SK-MEL-2 melanoma = test system: SK-MEL-2 melanoma
SK-MEL-28 melanoma = test system: SK-MEL-28 melanoma
SK-MEL-5 melanoma = test system: SK-MEL-5 melanoma
SK-OV-3 ovarian = test system: SK-OV-3 ovarian
SN12C renal = test system: SN12C renal
SNB-19 CNS = test system: SNB-19 CNS
SNB-75 CNS = test system: SNB-75 CNS
SR leukemia = test system: SR leukemia
SW-620 colon = test system: SW-620 colon
T-47D breast = test system: T-47D breast
TK-10 renal = test system: TK-10 renal
UACC-62 melanoma = test system: UACC-62 melanoma
UO-31 renal = test system: UO-31 renal
A549 NSCLC = test system: A549 NSCLC
CCRF-CEM leukemia = test system: CCRF-CEM leukemia
HOP-92 NSCLC = test system: HOP-92 NSCLC
HS 578T breast = test system: HS 578T breast
IGROV1 ovarian = test system: IGROV1 ovarian
NCI-H460 lung = test system: NCI-H460 lung
OVCAR-3 ovarian = test system: OVCAR-3 ovarian
UACC-257 melanoma = test system: UACC-257 melanoma

How did the TGI (786-0 renal) turn out when `CC(=O)Nc1ccc2c3c(cc(O)c2c1)N(C(=O)CCCCC(=O)N1CC(CCl)c2c1cc(O)c1cc(NC(C)=O)ccc21)CC3CCl` (stereo unspecified) was run?
Its TGI is 0.992 µM.

What about the TGI (A498 renal) of the same molecule?
The TGI was 0.39 µM.

What about the TGI (ACHN renal) of the same molecule?
Its TGI is 1.49 µM.

And the TGI (BT-549 breast)?
The TGI was 2.31 µM.

And the TGI (CAKI-1 renal)?
The TGI was 18.1 µM.

What about the TGI (COLO 205 colon) of the same molecule?
The TGI was 0.376 µM.

What about the TGI (DU-145 prostate) of the same molecule?
Its TGI is 0.209 µM.

What about the TGI (EKVX NSCLC) of the same molecule?
The TGI was 12.8 µM.

And the TGI (HCC-2998 colon)?
Its TGI is 0.443 µM.

And the TGI (HCT-116 colon)?
Its TGI is > 100 µM.

What about the TGI (HCT-15 colon) of the same molecule?
Its TGI is > 70.6 µM.

And the TGI (HL-60(TB) leukemia)?
Its TGI is 4.39 µM.

What about the TGI (HOP-62 NSCLC) of the same molecule?
Its TGI is 8.78 µM.

And the TGI (HT29 colon)?
Its TGI is > 30.4 µM.

What about the TGI (K-562 leukemia) of the same molecule?
Its TGI is > 100 µM.

And the TGI (KM12 colon)?
Its TGI is 14 µM.

And the TGI (LOX IMVI melanoma)?
Its TGI is > 100 µM.

What about the TGI (M14 melanoma) of the same molecule?
Its TGI is 1.16 µM.

And the TGI (MALME-3M melanoma)?
The TGI was 0.575 µM.

And the TGI (MCF7 breast)?
Its TGI is 0.264 µM.

And the TGI (MDA-MB-231 breast)?
The TGI was 0.733 µM.

What about the TGI (MDA-MB-435) of the same molecule?
Its TGI is 0.71 µM.

What about the TGI (MDA-N) of the same molecule?
Its TGI is 0.566 µM.

What about the TGI (MOLT-4 leukemia) of the same molecule?
The TGI was 0.0176 µM.

And the TGI (NCI-H226 lung)?
The TGI was 0.763 µM.

What about the TGI (NCI-H23 lung) of the same molecule?
The TGI was 0.744 µM.

What about the TGI (NCI-H522 lung) of the same molecule?
The TGI was 0.545 µM.

And the TGI (NCI/ADR-RES ovarian)?
The TGI was > 100 µM.

And the TGI (OVCAR-4 ovarian)?
Its TGI is > 27.7 µM.

What about the TGI (OVCAR-5 ovarian) of the same molecule?
Its TGI is 8.54 µM.

And the TGI (OVCAR-8 ovarian)?
Its TGI is > 32.4 µM.

And the TGI (PC-3 prostate)?
The TGI was > 33.7 µM.

And the TGI (RPMI-8226 leukemia)?
Its TGI is 0.635 µM.

What about the TGI (RXF 393 renal) of the same molecule?
The TGI was 0.41 µM.

And the TGI (SF-268 CNS)?
Its TGI is 2.77 µM.

What about the TGI (SF-295 CNS) of the same molecule?
The TGI was > 24.1 µM.

What about the TGI (SF-539 CNS) of the same molecule?
Its TGI is 1.34 µM.

And the TGI (SK-MEL-2 melanoma)?
The TGI was 0.316 µM.

What about the TGI (SK-MEL-28 melanoma) of the same molecule?
Its TGI is > 33.3 µM.

And the TGI (SK-MEL-5 melanoma)?
Its TGI is 0.391 µM.

And the TGI (SK-OV-3 ovarian)?
The TGI was > 64.5 µM.

And the TGI (SN12C renal)?
The TGI was 6.4 µM.

And the TGI (SNB-19 CNS)?
The TGI was 5.02 µM.

And the TGI (SNB-75 CNS)?
The TGI was 0.297 µM.

And the TGI (SR leukemia)?
The TGI was 0.0278 µM.

What about the TGI (SW-620 colon) of the same molecule?
Its TGI is > 100 µM.

What about the TGI (T-47D breast) of the same molecule?
Its TGI is 0.0973 µM.

What about the TGI (TK-10 renal) of the same molecule?
Its TGI is 11.9 µM.

What about the TGI (UACC-62 melanoma) of the same molecule?
The TGI was 0.22 µM.

And the TGI (UO-31 renal)?
The TGI was > 44.6 µM.

What does the source list for `CCOC(=O)/C(=C\NC(C)(C)C)c1nc2ccccc2[nH]1`?
TGI (786-0 renal): 72 µM; TGI (A498 renal): 57.3 µM; TGI (A549 NSCLC): > 100 µM; TGI (ACHN renal): 40.9 µM; TGI (BT-549 breast): 68.3 µM; TGI (CAKI-1 renal): 96.2 µM; TGI (CCRF-CEM leukemia): 39.5 µM; TGI (COLO 205 colon): 33.7 µM; TGI (DU-145 prostate): > 100 µM; TGI (EKVX NSCLC): 34.5 µM; TGI (HCT-116 colon): 95.2 µM; TGI (HCT-15 colon): > 100 µM; TGI (HL-60(TB) leukemia): 34 µM; TGI (HOP-62 NSCLC): 58.5 µM; TGI (HOP-92 NSCLC): 56.8 µM; TGI (HS 578T breast): 45.8 µM; TGI (HT29 colon): 42.6 µM; TGI (IGROV1 ovarian): 69.4 µM; TGI (KM12 colon): 44.1 µM; TGI (LOX IMVI melanoma): 44.6 µM; TGI (M14 melanoma): 39.7 µM; TGI (MALME-3M melanoma): 39.4 µM; TGI (MCF7 breast): 43.5 µM; TGI (MDA-MB-435): 38.6 µM; TGI (MDA-N): 52.8 µM; TGI (NCI-H226 lung): 47 µM; TGI (NCI-H23 lung): 35.9 µM; TGI (NCI-H460 lung): 37.3 µM; TGI (NCI-H522 lung): 45.9 µM; TGI (NCI/ADR-RES ovarian): 92.1 µM; TGI (OVCAR-3 ovarian): 35 µM; TGI (OVCAR-4 ovarian): 59.6 µM; TGI (OVCAR-5 ovarian): 55.9 µM; TGI (OVCAR-8 ovarian): 64.2 µM; TGI (RPMI-8226 leukemia): 39.2 µM; TGI (RXF 393 renal): 59.6 µM; TGI (SF-268 CNS): 55.9 µM; TGI (SF-295 CNS): 41.2 µM; TGI (SF-539 CNS): 39.4 µM; TGI (SK-MEL-28 melanoma): 34.6 µM; TGI (SK-MEL-5 melanoma): 25.5 µM; TGI (SK-OV-3 ovarian): 78.8 µM; TGI (SN12C renal): 75.6 µM; TGI (SNB-19 CNS): > 100 µM; TGI (SNB-75 CNS): 68.7 µM; TGI (SR leukemia): 28.3 µM; TGI (SW-620 colon): 93 µM; TGI (TK-10 renal): 47.6 µM; TGI (UACC-257 melanoma): 35.2 µM; TGI (UACC-62 melanoma): 30.1 µM; TGI (UO-31 renal): 41.3 µM
